The text below walks through data of patent US20210113598A1, “Combination of MIDH1 Inhibitors and DNA Hypomethylating Agents (HMA)” (Deutsches Krebsforschungszentrum (DKFZ) Stiftung des …, priority 2017, published 2021).

Experiment [1] concerns human IDH1 mutated AML. Briefly: Transplantation and treatment of mice (PDX model of IDH1 mutated AML). The settings on record: for leukemic cells in peripheral blood: monotherapy, week 4 until end of treatment at week 12, Compound A1 150 mg/kg p.o. once daily, azacitidine 1 mg/kg s.c. days 1-5.
Protocol: Leukemic cells from an AML patient with mutated DH1, NPM1, FLT3-TKD and NRAS were xenografted in immunocompromised mice. One million patient-derived AML cells collected from bone marrow and spleen of leukemic mice were injected intravenously in the tail vein of sublethally (3 Gy) irradiated NSG mice. […] The proportion of leukemic cells in peripheral blood of mice was measured with a human-specific CD45 antibody by tail vein bleeds and FACS analysis. The control groups were treated with either vehicle, Compound A1 150 mg/kg once daily p.o. continuously, or azacitidine 1 mg/kg once daily s.c. days 1-5, repeated once after 28 days. The test groups were treated with Compound A1 and azacitidine in the doses mentioned above either starting both drugs on day 1 (parallel group) or starting azacitidine on day 1 but Compound A1 on day 6 (sequential group).
For experiment [2], the system named is human IDH1 mutated AML cells. Briefly: Clonogenic progenitor (colony formation) assay, IDH1 mutated AML patient cells. Type of experiment: cell-based. The settings on record: Compound A1 alone. The protocol: (§1) Colony-forming cell (CFC) units were assayed in methylcellulose (Methocult H4100; StemCell Technologies Inc.) supplemented with 10 ng/mL IL3, 10 ng/mL GM-CSF, 50 ng/mL SCF, 50 ng/mL FLT3-ligand and 3 U/mL EPO (PeproTech). […] of Compound A1 was added in combination with increasing concentrations of Azacytidine to methylcellulose containing 10exp5 human mononuclear cells and were plated in duplicate. Colonies were evaluated microscopically 10 to 14 days after plating by standard criteria. Graphs was plotted as proportion of colonies relative to vehicle treated cells.

Experiment [3] has as its system human IDH1 mutated AML. The settings on record: background statement, oral; cited from earlier work.
The next experiment has as its system IDH1 wildtype AML cells. Briefly: Clonogenic progenitor (colony formation) assay, IDH1 wildtype AML patient cells. Type of experiment: cell-based, human. The settings on record: Compound A1 alone. As for the experimental part: as §1

The IC50 is the concentration that gives 50% inhibition. Consider `C[C@H]1C[C@@H](n2c(Nc3ccc(OC(F)(F)F)cc3)nc3cc(CCC(=O)O)ccc32)CC(C)(C)C1` [Compound A1, 3-(2-{[4-(trifluoromethoxy)phenyl]amino}-1-[(1R,5R)-3,3,5-trimethylcyclohexyl]-1H-benzimidazol-5-yl)propanoic acid], for which, in the experiment on human IDH1 mutated AML [1] (Compound A1 alone, 8 weeks after stopping the treatment), the “leukemia in week 20” value is “relapsed”. Also, in the experiment on human IDH1 mutated AML [1], the “leukemic cells in peripheral blood” value is reported as “declined”. Besides, in experiment [2], the concentration for half-maximal inhibition (IC50) came out at 100 nM. In addition, in the experiment on human IDH1 mutated AML [3], the “anti-leukemic activity in PDX models of IDH1 mutant AML in vivo” value is reported as “strong anti-leukemic activity”. Also, the colony formation result with IDH1 wildtype AML cells is “not affected”.

As to `Nc1ncn([C@@H]2O[C@H](CO)[C@@H](O)[C@H]2O)c(=O)n1` [azacitidine, 5-azacytidine, reference compound], the “leukemic cells in peripheral blood” value with human IDH1 mutated AML [1] was “constantly increased”.
